Results on 30 compounds are retold here after ChEMBL document CHEMBL1128825, “Synthetic inhibitors of interleukin-6 II: 3,5-diaryl pyridines and meta-terphenyls” (Bioorg Med Chem Lett, 1995).

In assay [1] the test system is WEHI265.1. In words: In vitro inhibitory activity against lipopolysaccharide (LPS)-induced IL-6 production in murine myelomonocytic uM. It is filed as functional, Mus musculus. More on the design: concentration or dose not given beside the values.
Assay [2] relates to Mus musculus. In words: In vivo inhibition of serum IL-6 after intraperitoneal administration of 25 mpk dose. It is filed as functional. The conditions noted are these: ip.
In assay [3] the test system is Mus musculus. In words: In vivo inhibition of serum IL-1 after i.p. administration of 25 mpk dose; showed no inhibition. It is filed as functional, organism-based.
Assay [4] has as its system Mus musculus. In words: In vivo inhibition of TNF- alpha after intraperitoneal administration of 25 mpk dose; showed no inhibition. It counts as functional, organism-based.
Assay [5] relates to Mus musculus. In words: In vivo inhibition of serum IL-5 after i.p. administration of 25 mpk dose; showed no inhibition. It counts as functional, organism-based.
Assay [6] deals with Mus musculus. In words: Effective dose required for in vivo inhibition of serum IL-6. It counts as functional.
The species entered for assay [7] is Mus musculus. In words: Inhibitory activity against serum IL-6. It counts as functional, organism-based.
The test system of assay [8] is WEHI265.1. In words: In vitro inhibitory activity against lipopolysaccharide (LPS) -induced IL-6 production in murine myelomonocytic uM; cytotoxic. It is filed as functional, cell-based. Particulars: Mus musculus.
Assay [9] concerns Mus musculus. In words: In vivo inhibition of serum IL-6 after peroral administration of 25 mpk dose. Particulars: po. It is filed as functional.

SMILES strings stand for the structures. The source made the active and inactive calls. The rule behind the calls is not given here.

With `c1ccc(-c2cncc(-c3ccccc3)c2)cc1`, the Inhibition – broadly, the change of the read-out against control, counted positive when it falls – in assay [1] was determined as 8%.

With `Oc1ccccc1-c1cncc(-c2ccccc2O)c1`, in [1], the Inhibition stood at 23%. On the same count and under the same terms, to `COc1cccc(-c2cccc(-c3cccc(OC)c3)c2)c1` belongs 24%. Compound `Fc1ccc(-c2cccc(-c3ccc(F)cc3)n2)cc1` registered an Inhibition in assay [1] of 44%.

Regarding `Oc1cccc(-c2cncc(-c3cccc(O)c3)c2)c1`, the Inhibition in [1] amounted to 59%. In assay [1], `Oc1ccc(-c2cnc(O)c(-c3ccc(O)cc3)c2)cc1` returned an Inhibition of 49%. Consider `Cc1cncc(-c2ccc(O)cc2)c1`, for which the Inhibition in assay [1] was determined as 7%.

Consider `N#Cc1ncc(-c2ccc(O)cc2)cc1-c1ccc(O)cc1`, for which the Inhibition in assay [1] was found to be 40%. `Fc1ccc(-c2ccc(-c3ccc(F)cc3)nc2)cc1` returned an Inhibition in [1] of 47%. Turning to `Oc1ccc(-c2cccc(-c3ccc(O)cc3)n2)cc1`, in assay [1], the Inhibition stood at 23%. With `CN(C)Cc1ccc(-c2cncc(-c3ccc(CN(C)C)cc3)c2)cc1`, in assay [1], the Inhibition was determined as 60%. The same measure, in the same setting: to `COc1ccc(-c2cccc(-c3ccc(OC)cc3)n2)cc1` belongs 55%; to `Oc1ccc(-c2cccnc2)cc1`, 0%; to `Oc1ccc(-c2ccc(-c3ccc(O)cc3)nc2)cc1`, 27%. For the compound `COc1ccc(-c2cncc(-c3ccc(OC)cc3)c2)cc1`, in assay [1], the Inhibition is given as 0%. For `Oc1cccc(-c2cccc(-c3cccc(O)c3)c2)c1`, the Inhibition in [1] is 21%. As for `Oc1ccc(-c2cccc(-c3ccc(O)cc3)c2)cc1`, the inhibition in vivo (in general, the drop in the measured response relative to a control, in per cent) at 25 mg/kg in assay [2] stood at 88%. Moreover, the outcome in [3], in [4] and in [5] was inactive. In addition, it took a dose of 1.5 mg/kg to reach the 50% effect level in assay [6] (ED50). Besides, the half-inhibitory concentration (IC50) (usually the concentration at which inhibition is half-maximal) in assay [7] was determined as 1500 nM. In assay [1], this compound displayed an Inhibition of 85%.

`Oc1ccc(-c2cncc(Cl)c2)cc1`: the Inhibition in assay [1] was found to be 0%.

As to `Oc1ccc(-c2cncc(-c3ccc(O)cc3)n2)cc1`, the Inhibition in assay [1] was 55%. In the case of `Oc1ccc(-c2cnc(Cl)c(-c3ccc(O)cc3)c2)cc1`, in assay [1], the Inhibition came to 61%.

The compound `[O-][n+]1cc(-c2ccc(O)cc2)cc(-c2ccc(O)cc2)c1` displayed an Inhibition in assay [1] of 37%.

In assay [1], `Fc1ccc(-c2cncc(-c3ccc(F)cc3)c2)cc1` had an Inhibition of 44%. In the case of `Oc1ccc(-c2cc(-c3ccc(O)cc3)c(Cl)nc2Cl)cc1`, in assay [1], the Inhibition came out at 52%. Take `CN(C)Cc1ccc(-c2cccc(-c3ccc(CN(C)C)cc3)c2)cc1`: in assay [8], the inhibition entry was “Toxic”. Consider `COc1ccc(-c2ccc(-c3ccc(OC)cc3)nc2)cc1`, for which, in assay [1], the Inhibition was 30%. Regarding `COc1ccc(-c2cccc(-c3ccc(OC)cc3)c2)cc1`, the Inhibition in assay [1] was determined as 75%. In assay [1], `Oc1ccccc1-c1cccc(-c2ccccc2O)c1` showed an Inhibition of 21%. `Oc1ccc(-c2cncc(-c3ccc(O)cc3)c2Cl)cc1` yielded an Inhibition in assay [1] of 60%. With `Oc1ccc(-c2cncc(-c3ccc(O)cc3)c2)cc1`, the inhibition in vivo at 25 mg/kg amounted to 63% in [2] and 71% in [9]. The result in assay [3], in [4] and in assay [5] was inactive. In addition, in assay [6], the ED50 (usually the dose that gives a 50% effect, or the effect in half of the subjects) was 2.8 mg/kg. Moreover, in assay [7], the half-maximal inhibitory concentration (IC50) was determined as 400 nM. Further, in assay [1], the Inhibition is reported as 73%. In turn, `COc1ccccc1-c1cccc(-c2ccccc2OC)c1` registered an Inhibition in assay [1] of 22%.
